Measurements published in patent US9017737B2, “Use of cannabinoids in combination with an anti-psychotic medicament” (priority 2008, dated 2015).

How the values were obtained:
3T3L1 cells = test: Induction of adipocyte differentiation (Oil Red O staining); type: cell-based; settings: treated for 8 days
rat/Wistar [1] = test: Aripiprazole-induced ptosis; type: in vivo; settings: ip, 1 hour after aripiprazole po
Procedure: (§1) Animals were subjected to a protocol as illustrated in FIG. 5.
(§2) Rats were made to fast from 6 PM on the day before the experiment until sacrifice. Rats were weighed and orally (PO) administered aripiprazole. […] For measurement of catalepsy, the observations were performed three times at each observation time point. The animals were forced to hang with their right forepaw on the upper edge of a steel can (diameter: 6 cm, height: 10 cm). When the animals remained in the unnatural vertical position for 30 seconds or longer, they were judged to be positive responders for catalepsy.
The measurement of ptosis was performed as follows. Each animal was individually taken from the home cage and put on the experimenter's hand to observe the eyes. The ptosis score was determined for both eyes as described below, and the scores for the two eyes were added to obtain the total score (maximum score, 8) • 0: Normal • 1: Mild ptosis (upper eyelid covered ¼ of the eye) • 2: Moderate ptosis (upper eyelid covered ½ of the eye) • 3: Severe ptosis (upper eyelid covered ¾ of the eye) • 4: Complete ptosis (upper eyelid covered the entire eye)

[2] = test system: small resistance mesenteric vessels and aorta; test: Chronic treatment of rats with CBD: vascular responses in isolated arteries; type: in vivo, rat; settings: animals treated for 2 weeks
rat/Wistar [3] = test: Aripiprazole-induced catalepsy; type: in vivo; settings: ip, 1 hour after aripiprazole po
Procedure: as §1, §2

rat isolated aortae = test: In vitro vascular studies by wire myography; settings: for Time-dependent relaxation of the rat aorta: 2 h (120 min), pre-contracted aortae
PPARγ = target: T1, PPARγ (Homo sapiens, UniProt P37231); test: Transcriptional transactivation (luciferase reporter gene) assay; type: cell-based; settings: any concentration tested; in words
T1 construct: expressed in transfected cells
T1 sequence (P37231 1-505): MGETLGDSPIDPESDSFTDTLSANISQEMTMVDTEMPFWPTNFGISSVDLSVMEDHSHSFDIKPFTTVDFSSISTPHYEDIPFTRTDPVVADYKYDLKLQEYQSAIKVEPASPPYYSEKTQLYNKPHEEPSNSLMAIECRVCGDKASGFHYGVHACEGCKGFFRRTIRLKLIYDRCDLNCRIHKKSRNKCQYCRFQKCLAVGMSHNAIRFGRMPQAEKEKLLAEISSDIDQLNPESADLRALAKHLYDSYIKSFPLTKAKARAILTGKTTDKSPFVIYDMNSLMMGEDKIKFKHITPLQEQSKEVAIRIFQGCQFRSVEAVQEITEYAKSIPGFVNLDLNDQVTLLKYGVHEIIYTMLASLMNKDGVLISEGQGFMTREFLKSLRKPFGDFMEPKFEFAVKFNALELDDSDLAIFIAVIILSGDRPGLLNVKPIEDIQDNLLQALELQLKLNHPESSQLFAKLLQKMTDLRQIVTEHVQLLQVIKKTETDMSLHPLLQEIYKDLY
T1 sequence (P19793 1-462 partner): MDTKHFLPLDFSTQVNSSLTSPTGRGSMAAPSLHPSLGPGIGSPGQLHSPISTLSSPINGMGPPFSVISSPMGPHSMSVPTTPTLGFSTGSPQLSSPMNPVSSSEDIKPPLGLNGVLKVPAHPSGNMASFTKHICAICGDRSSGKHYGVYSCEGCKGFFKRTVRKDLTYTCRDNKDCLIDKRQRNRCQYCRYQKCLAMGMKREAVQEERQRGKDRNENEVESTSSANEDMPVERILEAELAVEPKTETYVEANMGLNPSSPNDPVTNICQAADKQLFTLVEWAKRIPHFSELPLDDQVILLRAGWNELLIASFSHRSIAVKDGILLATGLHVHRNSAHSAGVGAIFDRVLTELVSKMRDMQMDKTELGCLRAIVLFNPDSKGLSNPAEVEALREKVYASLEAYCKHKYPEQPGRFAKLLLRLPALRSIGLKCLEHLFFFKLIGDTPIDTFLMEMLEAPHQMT
Procedure: In vitro vascular studies were carried out in rat isolated aortae by wire myography. PPARγ activation was investigated using reporter gene assays, a PPARγ competition-binding assay and an adipogenesis assay.

C=C(C)[C@@H]1CCC(C)=C[C@H]1c1c(O)cc(CCCCC)cc1O [CBD, cannabidiol]
Differentiation of 3T3 L1 cells to adipocytes (fat droplet accumulation, Oil Red O) (3T3L1 cells): signs of fat droplet accumulation were apparent at all concentrations tested | Aripiprazole-induced ptosis in rats (rat/Wistar [1]; 120 mg/kg): significantly decreased | Maximal response to methoxamine in the aorta [2]: 1.63±0.21 g increase tension | Potency of acetylcholine (pEC50) in the aorta [2]: 5.37±0.40 | Potency of methoxamine (pEC50), small resistance mesenteric vessels [2]: 5.79±0.10 | Aripiprazole-induced catalepsy in rats (rat/Wistar [3]; 120 mg/kg): significantly decreased | Time-dependent relaxation of the rat aorta (rat isolated aortae; 10 μM): 69.7±4.0 % relaxation | Residual relaxation (vasorelaxant effect minus the vasorelaxant effect of vehicle and time) (rat isolated aortae; 10 μM, after 2 h): 50.1±3.3 % relaxation | Basal tension over time (rat isolated aortae; 2 h): -0.03 ± 0.01 g | Time-dependent vascular responses with the CB1 receptor antagonist AM251 (rat isolated aortae; AM251 1 μM): did not significantly affect | Residual vasorelaxant effect in the presence of the PPARγ receptor antagonist GW9662 (rat isolated aortae; GW9662 1 μM, after 1 h of incubation): significantly reduced | Residual vasorelaxant effect in the presence of the nitric oxide synthase inhibitor L-NAME (rat isolated aortae; L-NAME 300 μM, vs control conditions): not different | Vascular response over time after pre-treating arteries with PTX or capsaicin (rat isolated aortae; PTX 200 ng ml−1, 2 h or capsaicin 10 μM, 1 h): no effect | Residual vasorelaxant effects with the CB2 receptor antagonist SR144528 (rat isolated aortae; SR144528 1 μM, between 45 min to 90 min): significantly inhibited | Potency and maximal contractile response to the re-introduction of calcium (rat isolated aortae; calcium free, high potassium Krebs-Hensleit solution, 1 μM to 30 μM, concentration-dependent): significantly reduced | Vasorelaxant effect in arteries contracted with a high potassium buffer (rat isolated aortae; compared with control): no difference | Vasorelaxant effect in vessels where tone was induced with U46619 in calcium free buffer (rat isolated aortae; compared with control): significantly blunted | Vasorelaxant effect in endothelium-denuded and control aortae (rat isolated aortae; endothelium-denuded): similar

CCCc1cc(O)c2c(c1)OC(C)(C)[C@@H]1CCC(C)=C[C@@H]21 [THCV, tetrahydrocannabivarin]
Aripiprazole-induced ptosis in rats (rat/Wistar [1]; 60 mg/kg): significantly decreased | Aripiprazole-induced catalepsy in rats (rat/Wistar [3]; 60 mg/kg): significantly decreased | Time-dependent relaxation of the rat aorta (rat isolated aortae; 10 μM): 28.7±4.6 % relaxation | Effect on tone in pre-contracted aortae (rat isolated aortae; 10 μM, in words): no effect on tone until after 105 minutes | PPARγ transcriptional activity (PPARγ): no effect

COc1ccc(CCN(C)CCCC(C#N)(c2ccc(OC)c(OC)c2)C(C)C)cc1OC (stereo not drawn) [verapamil, reference compound]
Vasorelaxation of pre-constricted vessels (rat isolated aortae; more rapid onset than CBD): significant vasorelaxation
